Activity calls are given as the source filed them.
What was measured:
Interleukin-8 = Interleukin-8 (Homo sapiens, UniProt P10145); experiment: SAR analysis of tumor necrosis factor alpha (TNF-alpha) induced IL-8 secretion in MCF-7/NOD1 cells. [Related pubchem assays (depositor defined):AID1575, AID2250, AID2260]; type: functional, cell-based
HEK293 = experiment: cells; conditions: Homo sapiens;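 also: cells exposed to compound for 14 hours overnight before viability readout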
Tumor necrosis factor = Tumor necrosis factor (Homo sapiens, UniProt P01375); experiment: analog potency on TNFa NF-kB signaling – cell-based, revised, SAR follow-up (AID 2337); type: functional
[1] = A Cell Based Assay for the Identification of Probe candidate Compounds with Anti- Venezuelan Equine Encephalitis virus. [Related pubchem assays: 2409, 2419, 1621, 2238, 2405, 2024, 2065, 2402, 2414, 1635, 1650, 2244 ]; type: functional
Vero [2] = experiment: Vero cell viability after compound exposure – synthesized analogs, set II, cytotoxicity control for West Nile virus antiviral project, SAR follow-up (AID 2402); type: functional; conditions: Chlorocebus sabaeus
Vero [3] = experiment: Vero 76 cell viability after compound exposure – Vero 76 cells, synthesized analogs, cytotoxicity control for West Nile virus antiviral project, SAR follow-up (AID 2414); type: functional; conditions: Chlorocebus sabaeus
Vero [4] = experiment: antiviral protection of cells from WNV – synthesized analogs, SAR follow-up (AID 2238); type: functional, cell-based; conditions: Chlorocebus sabaeus
Vero [5] = experiment: host cell viability loss, Vero E6 – synthesized analogs, cytotoxicity control for West Nile virus antiviral project, SAR follow-up (AID 2244); type: functional; conditions: Chlorocebus sabaeus
Vero [6] = experiment: antiviral activity against WNV, CPE read-out – cell-based (AID 2419); type: functional; conditions: Chlorocebus sabaeus
Vero [7] = experiment: inhibition of WNV-induced cytopathic effect – cell-based, CPE readout (AID 1621); type: functional; conditions: Chlorocebus sabaeus
[8] = molecular target: Neuropeptide Y receptor type 1 (Homo sapiens, UniProt P25929); type: functional;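 also: HEK293 cells with a CNG channel challenged with NPY then isoproterenol; potency as antagonist that reverses NPY suppression of cAMP signal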
[9] = molecular target: Neuropeptide Y receptor type 2 (Homo sapiens, UniProt P49146); type: functional, cell-based;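 also: HEK293 cells expressing the receptor and a CNG channel; stimulus was NPY near EC95 followed by isoproterenol to raise cAMP; antagonist potency measured as restoring cAMP signal that NPY suppresses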
[10] = molecular target: Lytic switch protein BZLF1 (Epstein-Barr virus (strain B95-8) (HHV-4) (Human herpesvirus 4), UniProt P03206); experiment: inhibition of BZLF1 ZTA DNA binding – biochemical, fluorescence polarization, Epstein-Barr virus, 1536-well, counter-screen for EBNA-1 inhibitor project, dose response (AID 2377); parameters: species or system human gammaherpesvirus 4;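 also: fluorescence polarization of Cy5-labelled ZRE DNA probe bound by purified Zta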
[11] = molecular target: Epstein-Barr nuclear antigen 1 (Epstein-Barr virus (strain B95-8) (HHV-4) (Human herpesvirus 4), UniProt P03211); experiment: inhibition of EBV nuclear antigen 1 DNA binding – biochemical, fluorescence polarization, 1536-well, dose response (AID 2381); parameters: species or system human gammaherpesvirus 4;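 also: fluorescence polarization of a Cy5 DNA probe bound by EBNA-1 protein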
[12] = antiviral protection against BTV-induced cell death – arbovirus, BSR cells, confirmation (AID 1250); type: functional;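 also: protection from viral cytopathic effect measured as cell viability by ATP luminescence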
[13] = molecular target: Sphingosine 1-phosphate receptor 3 (Homo sapiens, UniProt Q99500); experiment: Dose response cell-based high throughput screening assay for antagonists of the Sphingosine 1-Phosphate Receptor 3 (S1P3). [Related pubchem assays: 1429, 485 ]; type: functional
Paired box protein Pax-8 = Paired box protein Pax-8 (Homo sapiens, UniProt Q06710); experiment: PAX8 transcriptional activity inhibition in RMG-I – RMG-I cells, luciferase, cherry-pick, dose response (AID 687027); type: functional, cell-based;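 also: luciferase reporter driven by Pax8 target thyroperoxidase promoter measured by SteadyGlo luminescence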
[14] = molecular target: T1, Probable nicotinate-nucleotide adenylyltransferase (Staphylococcus aureus (strain N315), UniProt P65502); type: functional, Staphylococcus aureus subsp. aureus N315;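 as to IC50 Mean: confirmatory dose-response retesting of NadD inhibitor hits first found in an ultra-high-throughput screen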
[15] = molecular target: 5-hydroxytryptamine receptor 1E (Homo sapiens, UniProt P28566); experiment: Counterscreen assay for S1P3 antagonists: Dose response cell-based high throughput screening assay to identify antagonists of the 5-Hydroxytryptamine Receptor Subtype 1E (5HT1E). [Related pubchem assays: 1429, 485 ]; type: functional
[16] = molecular target: T1, Probable nicotinate-nucleotide adenylyltransferase; type: functional, Staphylococcus aureus subsp. aureus N315; conditions: read-out: IC50_Mean
[17] = molecular target: Glucose-6-phosphate 1-dehydrogenase (Homo sapiens, UniProt P11413); experiment: inhibition of Homo sapiens G6PD, dose series – biochemical, fluorescence, selectivity assay for P. falciparum G6PD inhibitor project, dose response (AID 504792); type: functional
Glucose-6-phosphate 1-dehydrogenase, sequence (P11413 whole entry): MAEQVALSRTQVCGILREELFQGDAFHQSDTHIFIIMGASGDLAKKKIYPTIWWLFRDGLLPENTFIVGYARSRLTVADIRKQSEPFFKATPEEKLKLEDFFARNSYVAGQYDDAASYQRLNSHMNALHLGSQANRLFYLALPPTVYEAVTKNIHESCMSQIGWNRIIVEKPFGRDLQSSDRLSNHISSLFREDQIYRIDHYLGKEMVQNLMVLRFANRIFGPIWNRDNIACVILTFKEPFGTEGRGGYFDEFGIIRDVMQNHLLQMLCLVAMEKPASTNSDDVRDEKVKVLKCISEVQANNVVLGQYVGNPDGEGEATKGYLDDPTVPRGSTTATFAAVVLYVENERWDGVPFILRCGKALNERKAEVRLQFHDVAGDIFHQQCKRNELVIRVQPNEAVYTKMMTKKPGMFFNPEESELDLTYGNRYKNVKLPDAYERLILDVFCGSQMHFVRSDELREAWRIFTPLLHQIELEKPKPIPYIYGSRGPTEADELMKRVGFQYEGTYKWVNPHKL

T1 sequence (P65502 whole entry): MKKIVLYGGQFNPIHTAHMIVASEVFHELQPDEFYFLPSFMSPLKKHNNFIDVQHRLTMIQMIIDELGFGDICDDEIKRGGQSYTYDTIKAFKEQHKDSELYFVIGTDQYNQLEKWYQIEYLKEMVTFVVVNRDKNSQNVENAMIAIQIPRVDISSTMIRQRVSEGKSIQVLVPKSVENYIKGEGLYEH
Neuropeptide Y receptor type 2, sequence (P49146 whole entry): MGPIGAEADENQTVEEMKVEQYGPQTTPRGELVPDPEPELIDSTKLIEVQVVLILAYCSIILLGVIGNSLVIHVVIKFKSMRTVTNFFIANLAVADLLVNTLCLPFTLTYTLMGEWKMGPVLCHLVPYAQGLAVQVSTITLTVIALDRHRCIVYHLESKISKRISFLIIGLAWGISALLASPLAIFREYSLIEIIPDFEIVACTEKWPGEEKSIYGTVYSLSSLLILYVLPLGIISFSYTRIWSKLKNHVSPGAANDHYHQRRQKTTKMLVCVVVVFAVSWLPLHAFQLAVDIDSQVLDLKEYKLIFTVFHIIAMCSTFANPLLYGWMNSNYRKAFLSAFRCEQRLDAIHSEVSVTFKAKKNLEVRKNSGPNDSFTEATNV
Interleukin-8, sequence (P10145 whole entry): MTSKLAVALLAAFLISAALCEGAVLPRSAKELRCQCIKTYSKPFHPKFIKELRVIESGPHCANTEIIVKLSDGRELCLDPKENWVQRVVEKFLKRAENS
Neuropeptide Y receptor type 1, sequence (P25929 whole entry): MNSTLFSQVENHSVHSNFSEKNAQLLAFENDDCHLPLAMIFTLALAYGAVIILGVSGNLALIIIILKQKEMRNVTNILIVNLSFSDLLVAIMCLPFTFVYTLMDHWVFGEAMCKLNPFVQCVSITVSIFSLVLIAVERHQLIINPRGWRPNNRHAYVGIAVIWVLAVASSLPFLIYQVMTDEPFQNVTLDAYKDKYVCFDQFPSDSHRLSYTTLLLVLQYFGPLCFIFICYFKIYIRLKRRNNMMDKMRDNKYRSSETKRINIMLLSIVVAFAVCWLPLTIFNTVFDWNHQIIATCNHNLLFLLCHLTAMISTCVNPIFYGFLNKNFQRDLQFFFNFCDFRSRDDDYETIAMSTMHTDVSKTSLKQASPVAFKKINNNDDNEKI
Sphingosine 1-phosphate receptor 3, sequence (Q99500 whole entry): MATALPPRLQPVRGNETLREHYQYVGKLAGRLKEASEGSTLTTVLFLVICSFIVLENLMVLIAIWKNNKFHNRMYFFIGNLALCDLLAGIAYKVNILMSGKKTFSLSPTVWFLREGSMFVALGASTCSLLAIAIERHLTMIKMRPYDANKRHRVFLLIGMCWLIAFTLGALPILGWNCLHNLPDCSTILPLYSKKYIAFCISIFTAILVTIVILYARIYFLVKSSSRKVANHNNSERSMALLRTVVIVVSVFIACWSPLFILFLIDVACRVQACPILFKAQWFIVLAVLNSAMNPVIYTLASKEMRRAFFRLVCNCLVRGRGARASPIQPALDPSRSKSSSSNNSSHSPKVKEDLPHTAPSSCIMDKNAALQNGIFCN
Epstein-Barr nuclear antigen 1, sequence (P03211 whole entry): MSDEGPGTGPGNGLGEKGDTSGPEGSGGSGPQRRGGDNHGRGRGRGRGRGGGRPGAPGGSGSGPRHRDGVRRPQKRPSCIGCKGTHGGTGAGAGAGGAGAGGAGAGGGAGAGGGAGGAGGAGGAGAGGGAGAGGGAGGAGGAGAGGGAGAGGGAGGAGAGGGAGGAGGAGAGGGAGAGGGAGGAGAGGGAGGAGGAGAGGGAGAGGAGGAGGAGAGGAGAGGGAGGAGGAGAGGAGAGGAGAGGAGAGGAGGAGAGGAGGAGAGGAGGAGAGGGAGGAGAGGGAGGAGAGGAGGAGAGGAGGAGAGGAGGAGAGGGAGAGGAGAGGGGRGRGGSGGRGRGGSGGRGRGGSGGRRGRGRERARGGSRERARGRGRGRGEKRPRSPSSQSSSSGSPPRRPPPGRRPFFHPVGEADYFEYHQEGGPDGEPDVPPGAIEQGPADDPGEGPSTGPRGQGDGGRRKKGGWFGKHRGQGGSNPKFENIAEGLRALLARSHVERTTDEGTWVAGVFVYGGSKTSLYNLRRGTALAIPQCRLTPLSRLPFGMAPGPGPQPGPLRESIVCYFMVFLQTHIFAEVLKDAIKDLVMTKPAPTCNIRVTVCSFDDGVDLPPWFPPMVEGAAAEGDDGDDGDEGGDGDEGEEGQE
Paired box protein Pax-8, sequence (Q06710 whole entry): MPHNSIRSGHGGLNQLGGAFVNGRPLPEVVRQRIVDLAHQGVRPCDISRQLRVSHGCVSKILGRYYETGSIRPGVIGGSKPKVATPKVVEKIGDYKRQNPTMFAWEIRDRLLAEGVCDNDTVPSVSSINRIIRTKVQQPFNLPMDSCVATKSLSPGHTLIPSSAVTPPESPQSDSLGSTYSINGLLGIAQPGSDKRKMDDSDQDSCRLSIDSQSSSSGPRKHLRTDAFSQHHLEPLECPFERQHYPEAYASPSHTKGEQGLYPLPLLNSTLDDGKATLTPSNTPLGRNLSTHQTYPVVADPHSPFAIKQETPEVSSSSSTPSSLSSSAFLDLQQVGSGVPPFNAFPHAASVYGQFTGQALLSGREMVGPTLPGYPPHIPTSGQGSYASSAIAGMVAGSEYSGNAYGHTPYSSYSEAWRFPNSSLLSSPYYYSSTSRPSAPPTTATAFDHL
Lytic switch protein BZLF1, sequence (P03206 whole entry): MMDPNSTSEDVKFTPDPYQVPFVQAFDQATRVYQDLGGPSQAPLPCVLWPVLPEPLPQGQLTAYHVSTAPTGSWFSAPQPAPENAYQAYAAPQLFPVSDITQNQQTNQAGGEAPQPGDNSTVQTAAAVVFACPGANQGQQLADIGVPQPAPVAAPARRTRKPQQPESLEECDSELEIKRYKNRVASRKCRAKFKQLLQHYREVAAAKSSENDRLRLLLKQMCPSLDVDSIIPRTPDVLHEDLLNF
5-hydroxytryptamine receptor 1E, sequence (P28566 whole entry): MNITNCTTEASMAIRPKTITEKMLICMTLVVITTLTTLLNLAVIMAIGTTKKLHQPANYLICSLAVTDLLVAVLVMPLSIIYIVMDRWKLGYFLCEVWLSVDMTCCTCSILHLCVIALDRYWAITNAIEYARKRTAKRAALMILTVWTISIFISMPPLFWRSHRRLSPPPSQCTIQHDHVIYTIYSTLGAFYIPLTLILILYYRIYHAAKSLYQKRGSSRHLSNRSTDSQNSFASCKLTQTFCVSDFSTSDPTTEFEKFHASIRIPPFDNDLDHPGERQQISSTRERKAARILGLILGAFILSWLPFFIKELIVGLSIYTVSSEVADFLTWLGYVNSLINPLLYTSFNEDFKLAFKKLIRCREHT
Tumor necrosis factor, sequence (P01375 whole entry): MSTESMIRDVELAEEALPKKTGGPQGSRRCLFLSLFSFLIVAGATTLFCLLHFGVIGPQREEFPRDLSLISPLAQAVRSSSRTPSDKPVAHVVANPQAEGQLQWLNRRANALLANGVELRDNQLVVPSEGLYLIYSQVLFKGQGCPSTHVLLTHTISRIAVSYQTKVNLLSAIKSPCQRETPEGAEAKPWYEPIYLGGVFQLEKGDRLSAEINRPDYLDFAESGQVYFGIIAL

Nc1nc2ccccc2n1S(=O)(=O)c1ccccc1
IC50 (Interleukin-8): > 5 µM (inactive) | IC50 (HEK293): > 20 µM (inactive) | IC50 (Tumor necrosis factor): > 20 µM (inactive)

CN(C)CCCN=C(S)N1CCN(c2nc(-c3ccccc3)cs2)CC1
IC50 [1]: 6.88 µM (active) | CC50 (Vero [2]): 15.1 µM (active) | CC50 (Vero [3]): 13.9 µM (active) | IC50 (Vero [4]): > 20 µM (active) | CC50 (Vero [5]): 25 µM (active) | IC50 (Vero [6]): > 12.5 µM (active) | IC50 (Vero [7]): 17.5 µM (active)

CCCCOc1ccc(C2=NNC(=O)CC2)cc1
IC50 [8]: 13.6 µM (not active) | IC50 [9]: 4.54 µM (active)

COc1ccc(NC(=O)COc2ccc3c(C)cc(=O)oc3c2)cc1S(=O)(=O)N1CCCCC1
IC50 [10]: > 111 µM (not active) | IC50 [11]: 5.29 µM (active)

Cc1nc2c(C(=O)NCCc3ccccc3Cl)cnn2c(O)c1Cl
IC50 [12]: 23.9 µM (active)

Cc1cccc(C2(c3cccc(C)c3)CC2C(=O)Nc2ccc([N+](=O)[O-])cc2O)c1 (stereo unspecified)
IC50 [13]: > 50 µM (not active) | AC50 (Paired box protein Pax-8): 7.83 µM (active) | IC50 [14]: 17 µM (active) | IC50 [15]: 5.46 µM (active) | IC50 [16]: 45.4 µM (active) | IC50 [17]: > 80 µM (inactive)
